Test results reported in patent US20220339136A1, “LIPOSOMAL TROPONOID COMPOUND FORMULATIONS” (United States Government As Represented By The Department …, priority 2019, published 2022).

Legend:
[1] = test system: WT S. aureus (ATCC 25923); conditions: cited from earlier work
[2] = test system: Vancomycin Intermediate Staphylococcus aureus (VISA) strain AR219; conditions: cited from earlier work; note: key: R: resistance; S: sensitive; I: intermediate; NS: nonsusceptible
[3] = test system: Vancomycin Intermediate Staphylococcus aureus (VISA) strain AR228; conditions: cited from earlier work; note: key: R: resistance; S: sensitive; I: intermediate; NS: nonsusceptible
[4] = test system: Sa #10, mupirocin-resistant MDRSA; test: Killing of drug-resistant bacteria Sa #10; type: cell-based, Staphylococcus aureus; conditions: troponoids formulated as liposomes
Solubility = type: physicochemical
S. aureus [5] = conditions: cited from earlier work
mammal cell lines = conditions: cited from earlier work
S. aureus [6] = conditions: 4×MIC, in vitro; cited from earlier work
[7] = test system: multidrug-resistant Staphylococcus. aureus (MDRSA), including methicillin-resistant S. aureus (MRSA) strains; conditions: cited from earlier work
[8] = insoluble as defined herein (less than 10 mg/l); cited from earlier work

| Compound | Antimicrobial susceptibility testing pattern (AST) [1] | Antimicrobial susceptibility testing pattern (AST) [2] | Antimicrobial susceptibility testing pattern (AST) [3] | also measured |
| --- | --- | --- | --- | --- |
| CC[C@H]1OC(=O)[C@H](C)[C@@H](O[C@H]2C[C@@](C)(OC)[C@@H](O)[C@H](C)O2)[C@H](C)[C@@H](O[C@@H]2O[C@H](C)C[C@H](N(C)C)[C@H]2O)[C@](C)(O)C[C@@H](C)C(=O)[C@H](C)[C@@H](O)[C@]1(C)O [ERY, Erthromycin] | S | R | R | – |
| CO[C@@]1(NC(=O)Cc2cccs2)C(=O)N2C(C(=O)O)=C(COC(N)=O)CS[C@@H]21 [FOX, Cefoxitin] | Neg | R | R | – |
| CC(=O)NC[C@H]1CN(c2ccc(N3CCOCC3)c(F)c2)C(=O)O1 [LZD, Linezolid] | S | S | S | – |
| C/C(=C\C(=O)OCCCCCCCCC(=O)O)C[C@@H]1OC[C@H](C[C@@H]2O[C@H]2[C@@H](C)[C@H](C)O)[C@@H](O)[C@H]1O [MUP, Mupirocin] | – | – | R | – |
| Cc1onc(-c2ccccc2)c1C(=O)N[C@@H]1C(=O)N2[C@@H]1SC(C)(C)[C@@H]2C(=O)O [OXA, Oxacillin] | S | R | R | – |
| CO[C@H]1/C=C/O[C@@]2(C)Oc3c(C)c(O)c4c(O)c(c(/C=N/N5CCN(C)CC5)c(O)c4c3C2=O)NC(=O)/C(C)=C\C=C\[C@H](C)[C@H](O)[C@@H](C)[C@@H](O)[C@@H](C)[C@H](OC(C)=O)[C@@H]1C [RIF, Rifampin] | S | R | S | – |
| CN[C@H](CC(C)C)C(=O)N[C@H]1C(=O)N[C@@H](CC(N)=O)C(=O)N[C@H]2C(=O)N[C@H]3C(=O)N[C@H](C(=O)N[C@H](C(=O)O)c4cc(O)cc(O)c4-c4cc3ccc4O)[C@H](O)c3ccc(c(Cl)c3)Oc3cc2cc(c3O[C@@H]2O[C@H](CO)[C@@H](O)[C@H](O)[C@H]2O[C@H]2C[C@](C)(N)[C@H](O)[C@H](C)O2)Oc2ccc(cc2Cl)[C@H]1O [VAN, Vancomycin] | S | I | I | – |
| COc1ccccc1C(=O)Oc1cccccc1=O [compound 285] | – | – | – | killing of mupirocin-resistant MDRSA Sa #10 [4]: can kill; solubility in DMSO (Solubility; DMSO, Gentamicin at 10 mg/mL): can be dissolved; solubility in water (Solubility; water): not quite soluble; MIC (S. aureus [5]): less than 5 μg/mL; CC50 (mammal cell lines): > 100 µM; incubation time to completely kill S. aureus (S. aureus [6]): 5 to 8 h; inhibition of MDRSA including MRSA strains [7]: can inhibit; solubility in water (reportedly) [8]: insoluble |
| Daptomyxin | S | – | – | – |
| Gentamicin | S | R | S | – |
| Penicillin | – | R | R | – |
| Trimethoprim-sulfamethoxazole [SXT] | S | S | S | – |
